{"source": "patent EP2518139A1", "about": "“Use of indirubin derivatives for producing pluripotent stem cells” (Universitätsklinikum Jena, priority 2011, dated 2012)", "key": {"[1]": {"target": "T1, CDK1/CycB1 (Homo sapiens, UniProt P06493)", "T1 construct": "purchased ProQinase", "T1 sequence (P06493 whole entry)": "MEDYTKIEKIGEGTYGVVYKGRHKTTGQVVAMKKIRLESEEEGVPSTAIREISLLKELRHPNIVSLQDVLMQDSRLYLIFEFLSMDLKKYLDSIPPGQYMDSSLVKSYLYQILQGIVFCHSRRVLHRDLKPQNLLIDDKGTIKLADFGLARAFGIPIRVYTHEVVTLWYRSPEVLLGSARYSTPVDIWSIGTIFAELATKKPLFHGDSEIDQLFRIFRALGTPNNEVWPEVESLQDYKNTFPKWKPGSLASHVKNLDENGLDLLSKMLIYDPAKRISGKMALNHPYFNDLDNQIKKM", "T1 sequence (P14635 whole entry partner)": "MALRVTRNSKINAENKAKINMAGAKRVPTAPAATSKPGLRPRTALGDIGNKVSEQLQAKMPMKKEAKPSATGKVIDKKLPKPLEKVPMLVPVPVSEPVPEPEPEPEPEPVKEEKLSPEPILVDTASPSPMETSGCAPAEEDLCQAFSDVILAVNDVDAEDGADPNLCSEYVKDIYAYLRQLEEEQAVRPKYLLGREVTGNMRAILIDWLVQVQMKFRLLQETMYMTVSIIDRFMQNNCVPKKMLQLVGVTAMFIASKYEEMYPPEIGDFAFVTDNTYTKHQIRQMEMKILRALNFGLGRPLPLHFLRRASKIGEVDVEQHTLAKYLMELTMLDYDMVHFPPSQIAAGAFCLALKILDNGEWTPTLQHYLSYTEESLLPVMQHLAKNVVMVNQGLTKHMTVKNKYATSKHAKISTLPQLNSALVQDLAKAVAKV", "assay": "Kinase profiling assay (ProQinase), residual activity", "type": "biochemical", "conditions": "1µM E738, 1µM ATP, recombinant protein kinase", "procedure": "(§1) Kinase Assay: The Kinase profiling assay was performed by ProQinase as previously described (Cheng et al.201 0).\n(§2) Because E738 initially was designed as a protein kinase inhibitor, we asked if E738 induced dephoshorylation and degradation are caused by certain protein kinases. Thus we exploited protein kinase profiling containing several Smad-relative protein kinases like CDKs and GSK3ß to overview the inhibitory effect of E738 in vitro. The residual activities of kinases were measured by using recombinant protein kinases and proper substrates after treatment with 1µM E738 in the presence of 1µM ATP as our previously described. […] However the mechanism was still remained to elucidate. Recently, researchers argued that Raf kinase inhibitor may induce the activation of MAPKs in vitro and in vivo leading to the failure of cancer therapy (Hatzivassiliou nature 2010 464 431-436, Heidol cell 2010 140 209-221, Murphy PNAS 2010 107 9 4299-4304). We assumed that the indirubin activated MAPKs might be due to its inhibition against Raf kinase. Furthermore, the Lin et. al. described Stat3 inhibitor could disrupt TGFß signaling (Lin oncogene 200928 961-972). Therefore we included Raf and Stat3-relative protein kinases, like Jak, Kit and Src, in this small screening."}, "[2]": {"target": "T2, CDK2/CycA (Homo sapiens, UniProt P24941)", "T2 construct": "purchased ProQinase", "assay": "Kinase profiling assay (ProQinase), residual activity", "type": "biochemical", "conditions": "1µM E738, 1µM ATP, recombinant protein kinase", "procedure": "as §1, §2"}, "[3]": {"target": "T3, CDK2/CycE (Homo sapiens, UniProt P24941)", "T3 construct": "purchased ProQinase", "assay": "Kinase profiling assay (ProQinase), residual activity", "type": "biochemical", "conditions": "1µM E738, 1µM ATP, recombinant protein kinase", "procedure": "as §1, §2"}, "[4]": {"target": "T4, CDK4/CycD1 (Homo sapiens, UniProt P11802)", "T4 construct": "purchased ProQinase", "T4 sequence (P11802 whole entry)": "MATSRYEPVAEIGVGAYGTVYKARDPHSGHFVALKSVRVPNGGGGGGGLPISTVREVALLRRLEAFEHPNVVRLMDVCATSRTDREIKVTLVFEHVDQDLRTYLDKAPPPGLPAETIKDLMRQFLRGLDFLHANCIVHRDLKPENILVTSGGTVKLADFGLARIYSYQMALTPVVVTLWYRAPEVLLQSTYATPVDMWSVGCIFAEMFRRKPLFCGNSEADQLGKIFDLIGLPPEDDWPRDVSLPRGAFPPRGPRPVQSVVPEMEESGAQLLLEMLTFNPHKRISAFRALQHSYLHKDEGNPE", "T4 sequence (P24385 whole entry partner)": "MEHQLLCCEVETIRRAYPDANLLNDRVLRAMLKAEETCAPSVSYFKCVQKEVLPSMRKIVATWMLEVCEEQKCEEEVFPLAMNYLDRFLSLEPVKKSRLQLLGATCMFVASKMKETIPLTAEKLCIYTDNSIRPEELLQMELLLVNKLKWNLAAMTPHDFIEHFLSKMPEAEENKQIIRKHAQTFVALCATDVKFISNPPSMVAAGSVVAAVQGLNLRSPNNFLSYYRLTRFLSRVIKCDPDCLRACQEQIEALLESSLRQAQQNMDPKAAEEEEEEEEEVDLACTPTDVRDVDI", "assay": "Kinase profiling assay (ProQinase), residual activity", "type": "biochemical", "conditions": "1µM E738, 1µM ATP, recombinant protein kinase", "procedure": "as §1, §2"}, "[5]": {"target": "T5, CDK5/p35 (Homo sapiens, UniProt Q00535)", "T5 construct": "purchased ProQinase", "T5 sequence (Q00535 whole entry)": "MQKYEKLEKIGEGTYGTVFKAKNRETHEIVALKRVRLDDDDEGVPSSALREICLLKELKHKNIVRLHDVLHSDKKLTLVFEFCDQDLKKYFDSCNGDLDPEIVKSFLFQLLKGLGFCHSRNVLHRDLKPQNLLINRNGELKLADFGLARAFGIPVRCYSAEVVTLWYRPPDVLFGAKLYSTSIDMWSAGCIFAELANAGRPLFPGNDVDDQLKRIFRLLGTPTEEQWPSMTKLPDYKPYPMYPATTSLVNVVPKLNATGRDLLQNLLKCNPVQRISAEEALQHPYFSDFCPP", "T5 sequence (Q15078 whole entry partner)": "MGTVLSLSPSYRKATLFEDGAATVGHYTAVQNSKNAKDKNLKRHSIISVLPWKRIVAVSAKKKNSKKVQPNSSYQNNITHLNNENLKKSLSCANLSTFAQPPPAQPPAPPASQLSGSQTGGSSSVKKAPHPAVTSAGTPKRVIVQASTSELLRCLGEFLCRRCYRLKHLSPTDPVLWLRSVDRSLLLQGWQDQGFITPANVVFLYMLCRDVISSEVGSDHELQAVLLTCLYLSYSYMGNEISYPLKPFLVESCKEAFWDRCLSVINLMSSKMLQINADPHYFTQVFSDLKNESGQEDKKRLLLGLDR", "assay": "Kinase profiling assay (ProQinase), residual activity", "type": "biochemical", "conditions": "1µM E738, 1µM ATP, recombinant protein kinase", "procedure": "as §1, §2"}, "[6]": {"target": "T6, GSK3ß (Homo sapiens, UniProt P49841)", "T6 construct": "purchased ProQinase", "T6 sequence (P49841 whole entry)": "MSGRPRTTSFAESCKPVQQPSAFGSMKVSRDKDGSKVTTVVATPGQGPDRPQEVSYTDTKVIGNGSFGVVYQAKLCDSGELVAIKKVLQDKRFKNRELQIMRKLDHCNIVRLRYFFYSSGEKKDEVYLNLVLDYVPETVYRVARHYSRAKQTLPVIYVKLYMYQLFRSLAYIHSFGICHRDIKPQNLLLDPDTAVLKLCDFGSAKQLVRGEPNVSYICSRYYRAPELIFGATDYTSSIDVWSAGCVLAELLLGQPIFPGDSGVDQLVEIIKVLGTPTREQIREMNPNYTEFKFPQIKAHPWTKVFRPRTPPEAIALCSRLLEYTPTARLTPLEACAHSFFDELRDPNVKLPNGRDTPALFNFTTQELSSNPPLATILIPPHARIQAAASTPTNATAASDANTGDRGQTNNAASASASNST", "assay": "Kinase profiling assay (ProQinase), residual activity", "type": "biochemical", "conditions": "read-out: residual activity of GSK3ß", "procedure": "as §1, §2"}, "[7]": {"tested_on": "MAPKs (JNK, P38, Erk1/2)", "assay": "Immunoblot of phosphorylated MAPKs in HeLa cells", "type": "cell-based, human", "conditions": "BMP2 (100ng/mL)", "procedure": "Western blot:: Cell extracts were homogenized in Urea-Lysis buffer (1mM EDTA,0.5% Triton X-100), 5mM NaF, 6M Urea, 1mM Na3VO4, 10µg/mL Pepstatin, 100µM PMSF and 3µg/mL Aprotinin in PBS). Enhanced chemiluminescence (ECL) Western blot analysis was performed. 20-40µg of total protein was resolved on 10% SDS-PAGE gels and immunoblotted with specific antibodies. Primary antibodies were incubated at a 1:1,000 dilution in TBS (pH 7.5) with 0.1% Tween-20 and 5% BSA/nonfat milk with gentle agitation overnight at 4°C. The proper secondary antibodies were incubated in TBS (pH 7.5) with 5% BSA/nonfat milk and 0.1 % Tween-20 at a 1:5,000 dilution for 1 h at room temperature.\nTo assess the effect of E738 on Wnt and Stat3 pathway in mammalian cellular context, HeLa cells were treated with E738 at increasing concentrations for 1 h. Here E804 was used as reference because of its well-known inhibition of Stat3 and Wnt. The antibodies of p-Stat3 and non-phosphorylation-ß-Catenin (NP-ß-Catenin, Ser33/37/Thr41), which can provide a convenient positive band if GSK3B is inhibited, were recruited to substantiated our in vitro results. […] With the stimulation of FCS, we also observed the similar regulation on Stat3 and MAPKs pathways depicted in Fig. 8. […]"}}, "note": "“Also recorded” adds a separate entry of the source.", "data": [{"compound": "COc1ccc2c(c1)C(=C1Nc3ccccc3C1=NOCC(O)CO)C(=O)N2", "note": "(centres unmarked) [E738]", "values": [{"measurement": "remaining activity at 1 µM", "setting": "[1]", "value": 16, "unit": "%"}, {"measurement": "remaining activity at 1 µM", "setting": "[2]", "value": 10, "unit": "%"}, {"measurement": "remaining activity at 1 µM", "setting": "[3]", "value": 8, "unit": "%"}, {"measurement": "remaining activity at 1 µM", "setting": "[4]", "value": 23, "unit": "%"}, {"measurement": "remaining activity at 1 µM", "setting": "[5]", "value": 16, "unit": "%"}, {"measurement": "remaining activity at 1 µM", "setting": "[6]", "value": 6, "unit": "%"}, {"measurement": "phosphorylations of MAPKs (JNK, P38, Erk1/2)", "setting": "[7]; 1 h, increasing concentrations", "value": "promoted phosphorylations of JNK and P38 at the low concentraions, but not for Erk1/2"}, {"measurement": "p-JNK, p-P38 and pErk1/2", "setting": "[7]; 6h after treatment", "value": "induced activation of P38; also recorded: clear increases of p-JNK and p-P38 were observed 6h after treatment, but not pErk1/2"}]}]}
